Reference: patent US20240316028A1, “[…] FORMULATIONS AND THEIR USES” (priority 2023, published 2024)
Where a name gives a salt, the structure may show the parent alone.

Assays:
[1] = type: physicochemical
Procedure: All excipients used in the formulations were compatible with physostigmine before and after eBeam of 25 kGy. NaOH was used to adjust the cream pH and was added before mixing with physostigmine.

[2] = thermal and photolytic conditions

Row | Compound | Total Impurities Pre eBeam ([1]; Table 13) | Total Impurities Post eBeam T0 ([1]; Table 13, eBeam 25 kGy) | thermal and photolytic degradation [2]
1 | CNC(=O)Oc1ccc2c(c1)[C@]1(C)CCN(C)[C@@H]1N2C [Physostigmine Salicylate] | 0.11 | 0.15 | 
2 | CN1[C@@H]2CC[C@H]1C[C@@H](OC(=O)C(CO)c1ccccc1)C2 (stereo partly drawn) [atropine sulfate] |  |  | No significant variation
